Source: article PMC11766344, “HGS Promotes Tumor Growth, Whereas the Coiled-Coil Domain and Its Oligopeptide of HGS Suppress It” (International Journal of Molecular Sciences, 2025)
“Also recorded” adds a separate entry of the source.

Experiments:
[1] = Body weight and acute toxicity in tumor-bearing nude mice given OP12-462; format: in vivo, nude mice (BALB/cSlc-nu/nu)
Text: (§1) The effect of OP12-462 on anchorage-independent growth was examined; normal cells can proliferate in an anchorage-dependent manner but cannot in an anchorage-independent manner, whereas cancer cells can both proliferate in the anchorage-independent manner and form tumors. In normal (adhesion) plates, cancer cells adhere to the surface of plates and proliferate in the anchorage-dependent manner, so the anchorage-independent growth ability of the cancer cells cannot be observed. In ultra-low attachment surface (ULAS) plates, the cancer cells cannot adhere to the surface nor proliferate in the anchorage-dependent manner but can proliferate in the anchorage-independent manner. By measuring the proliferation ability of cancer cells on the ULAS plates, we can determine the anchorage-independent growth ability of the cells. […] Next, the effect of OP12-462 on tumor growth was examined. COLO 205 cells were inoculated subcutaneously into the back of BALB/cSlc-nu/nu nude mice. The day when the tumor volume exceeded 250 mm^3 was set as day 0, and OP12-462 (50 mg/kg body weight) in 0.2 mL of PBS solution or vehicle (PBS) was administered once a day into the tail vein for 10 days from day 0 to day 9.
The cells were resuspended at a cell density of 1 × 10^6 cells in 100 µL of PBS and were inoculated subcutaneously into the flank region of 8-week-old female nude mice. The day when the tumor volume exceeded 250 mm^3 was set as Day 0, and oligopeptide OP12-462 (50 mg/kg body weight) was administered as a 0.2 mL PBS solution in the tail vein once daily for 10 days from Day 0 to Day 9. Tumor sizes were measured daily.

COLO205 cells = experiment: Oligopeptide tumor growth inhibition test, subcutaneous COLO205 tumors in nude mice; format: in vivo, nude mice (BALB/cSlc-nu/nu)
Text: The effect of OP12-462 on anchorage-independent growth was examined; normal cells can proliferate in an anchorage-dependent manner but cannot in an anchorage-independent manner, whereas cancer cells can both proliferate in the anchorage-independent manner and form tumors. In normal (adhesion) plates, cancer cells adhere to the surface of plates and proliferate in the anchorage-dependent manner, so the anchorage-independent growth ability of the cancer cells cannot be observed. In ultra-low attachment surface (ULAS) plates, the cancer cells cannot adhere to the surface nor proliferate in the anchorage-dependent manner but can proliferate in the anchorage-independent manner. By measuring the proliferation ability of cancer cells on the ULAS plates, we can determine the anchorage-independent growth ability of the cells. […]
After a 2-week acclimation period, 8-week-old female C57BL/6 or nude mice were randomly divided into groups. […] Tumor formation was monitored for 4 or 5 weeks after the inoculation by measuring the width (W) and length (L) of the tumors with W < L. The tumor volume was calculated according to the formula (W2 × L × π/6).
The cells were resuspended at a cell density of 1 × 10^6 cells in 100 µL of PBS and were inoculated subcutaneously into the flank region of 8-week-old female nude mice. […] Tumor sizes were measured daily.

COLO 205 cells = experiment: In vitro anchorage-independent growth inhibition test, ULAS plate; format: cell-based, human; conditions: 2 × 10^3 cells/well, ULAS 96-well plate, Opti-MEM 5% FBS, 7 days, 37 °C, Cell Counting Kit-8 A450 nm
Text: The effect of OP12-462 on anchorage-independent growth was examined; normal cells can proliferate in an anchorage-dependent manner but cannot in an anchorage-independent manner, whereas cancer cells can both proliferate in the anchorage-independent manner and form tumors. In normal (adhesion) plates, cancer cells adhere to the surface of plates and proliferate in the anchorage-dependent manner, so the anchorage-independent growth ability of the cancer cells cannot be observed. In ultra-low attachment surface (ULAS) plates, the cancer cells cannot adhere to the surface nor proliferate in the anchorage-dependent manner but can proliferate in the anchorage-independent manner. By measuring the proliferation ability of cancer cells on the ULAS plates, we can determine the anchorage-independent growth ability of the cells. […] Next, the effect of OP12-462 on tumor growth was examined. COLO 205 cells were inoculated subcutaneously into the back of BALB/cSlc-nu/nu nude mice. […]
After 7 days, 0.1 mL of Cell Counting Kit-8 solution (5-fold PBS diluted solution) was added, and the absorbance A450 nm was immediately measured and set as the T0 blank value. After incubating at 37 °C for 2 h, the absorbance A450 nm was measured again and set as T2. The absorbance difference between T2 and T0 was defined as the anchorage-independent or anchorage-dependent growth activity value.

normal or cancer cells = experiment: Acute toxicity to cells in vitro; format: cell-based
Text: HGS/C and oligopeptides constituting HGS/C, including OP12-462, might be new tumor growth inhibitors that suppress tumor growth by inhibiting the anchorage-independent growth ability of cancer cells rather than directly destroying cancer cells. […] HGS/C and the OP12-462 are novel inhibitors of TGF-β-SMAD and Wnt-β-catenin signal transduction. They not only have a novel tumor growth suppression effect but also have the potential to become novel medicines for diseases, including various fibrosis diseases, whose symptoms worsen owing to the enhancement of these signal transduction pathways. Potential drug targets of EMT in metastasis are now in development. HGS and HGS/C are an inducer and an inhibitor of EMT and tumorigenesis. Therefore, HGS and HGS/C could be good targets of EMT-blocking drugs for clinical application.

MDCK normal cells = experiment: Anchorage-dependent growth in normal adhesion plates, MDCK normal cells; format: cell-based, canine
Text: as §1

ERRLYYEGLQDK [OP12-462, oligopeptide of 12 amino acid residues (…) constituting the coiled-coil domain of HGS]
Average body weight / weight loss ([1]; 50 mg/kg tail vein for 10 consecutive days): no change in the average body weight; also recorded: did not result in weight loss
Acute toxicity due to administration ([1]; 50 mg/kg tail vein once daily for 10 days): No acute toxicity
Changes in body weight of each mouse ([1]; ten days after administration, 50 mg/kg tail vein once daily for 10 days): −0.4% to +2
Tumor growth (tumor volume) versus vehicle (COLO205 cells; 50 mg/kg body weight in 0.2 mL PBS, tail vein, once daily for 10 days (day 0 to day 9), day 0 = tumor volume exceeded 250 mm^3, nude mice, n = 5): statistically significant from the third day onwards; also recorded: significantly suppressed the growth of the tumor
Duration of tumor growth suppression after end of administration (COLO205 cells; 50 mg/kg tail vein once daily day 0 to day 9, nude mice with COLO205 tumors): for more than two weeks after the administration had ended
Anchorage-independent growth activity (COLO 205 cells): inhibited the anchorage-independent growth activity of COLO 205 cells (Figure 5b) in a concentration-dependent manner
Acute toxicity to normal or cancer cells in vitro (normal or cancer cells): no acute toxicity
Anchorage-dependent growth of MDCK normal cells (MDCK normal cells): did not inhibit
